# According to ChEMBL document CHEMBL5543108, “Structure-based design and synthesis of BML284 derivatives: A novel class of colchicine-site noncovalent tubulin degradation agents” (Eur J Med Chem, 2024):
# Structures can show the parent of a compound that is named as a salt. Active and inactive are the calls of the source. No cut-off for these calls is given here.
# Key:
# MCF7 = assay: cells; conditions: Homo sapiens, MCF7, 72 h
# Description: Antiproliferative activity against human MCF7 cells assessed as reduction in cell viability measured after 72 hrs
# HeLa = assay: Antiproliferative activity against human HeLa cells assessed as reduction in cell viability measured after 72 hrs; assay type: functional, cell-based
# HCT-116 = assay: cells; conditions: Homo sapiens, HCT-116, 72 h
# Description: Antiproliferative activity against human HCT-116 cells assessed as reduction in cell viability measured after 72 hrs
# MOLM-13 = assay: Antiproliferative activity against human MOLM-13 cells assessed as reduction in cell viability measured after 72 hrs; assay type: functional, cell-based; conditions: MOLM-13, 72 h
# K562 = assay: Antiproliferative activity against human K562 cells assessed as reduction in cell viability measured after 72 hrs; assay type: functional, cell-based; conditions: K562, 72 h
# Tubulin (Homo sapiens) [1] = molecular target: T1, Tubulin (Homo sapiens) (UniProt P68371+Q9H4B7+P0DPH7+P68366+Q13509+Q71U36+P04350+Q3ZCM7+P07437+P68363+Q9BQE3+Q6PEY2+Q13885+Q9BVA1+Q9BUF5); assay: Induction of tubulin degradation in human HeLa cells measured after 24 hrs by immunoblot analysis; assay type: cell-based; conditions: dose <= 50.0 µM
# Tubulin (Homo sapiens) [2] = molecular target: T1, Tubulin (Homo sapiens); assay: Induction of tubulin degradation in human HeLa cells at 50 uM measured after 24 hrs by immunoblot analysis; assay type: cell-based
# NCI/ADR-RES = assay: Antiproliferative activity against human MCF7ADR cells assessed as reduction in cell viability measured after 72 hrs; assay type: functional, cell-based
IC50 (MCF7),IC50 (HeLa),IC50 (HCT-116),IC50 (MOLM-13),IC50 (K562),Activity (Tubulin (Homo sapiens) [1]),Activity (Tubulin (Homo sapiens) [2]),SMILES,IC50 (NCI/ADR-RES)
540 nM,360 nM,180 nM,130 nM,120 nM,–,–,COc1cccc(-c2cc(NCc3ccc(F)cc3F)nc(N)n2)c1,–
> 2000 nM,> 2000 nM,> 2000 nM,> 2000 nM,> 2000 nM,–,–,CCOc1ccc(-c2cc(NCc3ccc4c(c3)OCO4)nc(N)n2)cc1,–
> 2000 nM,> 2000 nM,> 2000 nM,> 2000 nM,> 2000 nM,–,–,CC(C)c1cccc(-c2cc(NCc3ccc4c(c3)OCO4)nc(N)n2)c1,–
> 2000 nM,> 2000 nM,> 2000 nM,> 2000 nM,> 2000 nM,–,–,CC(=O)c1cccc(-c2cc(NCc3ccc4c(c3)OCO4)nc(N)n2)c1,–
> 2000 nM,> 2000 nM,> 2000 nM,> 2000 nM,> 2000 nM,–,–,Nc1nc(NCc2ccc3c(c2)OCO3)cc(-c2ccncc2)n1,–
> 2000 nM,> 2000 nM,> 2000 nM,> 2000 nM,> 2000 nM,–,–,Nc1nc(NCc2ccc3c(c2)OCO3)cc(-c2ccc(-c3ccccc3)cc2)n1,–
290 nM,290 nM,130 nM,130 nM,320 nM,–,–,COc1cccc(-c2cc(NCc3ccc4ccccc4c3)nc(N)n2)c1,–
> 2000 nM,> 2000 nM,> 2000 nM,> 2000 nM,> 2000 nM,–,–,COc1ccc(-c2cc(NCc3ccc4c(c3)OCO4)nc(N)n2)cc1OC,–
> 2000 nM,> 2000 nM,> 2000 nM,> 2000 nM,> 2000 nM,–,–,CC1(C)c2ccccc2-c2ccc(-c3cc(NCc4ccc5c(c4)OCO5)nc(N)n3)cc21,–
> 2000 nM,> 2000 nM,> 2000 nM,> 2000 nM,> 2000 nM,–,–,Nc1nc(NCc2ccc3c(c2)OCO3)cc(-c2ccc(Oc3ccccc3)cc2)n1,–
> 2000 nM,> 2000 nM,> 2000 nM,> 2000 nM,> 2000 nM,–,–,CC(C)(C)c1ccc(-c2cc(NCc3ccc4c(c3)OCO4)nc(N)n2)cc1,–
620 nM,610 nM,450 nM,220 nM,350 nM,–,–,COc1cccc(-c2cc(NCc3cc(F)cc(F)c3)nc(N)n2)c1,–
850 nM,440 nM,920 nM,360 nM,270 nM,Dose-Dependent Effect,–,COc1cccc(-c2cc(NCc3ccccc3)nc(N)n2)c1,–
> 2000 nM,> 2000 nM,> 2000 nM,> 2000 nM,> 2000 nM,–,–,Nc1nc(NCc2ccc3c(c2)OCO3)cc(-c2ccc(F)cc2)n1,–
360 nM,440 nM,160 nM,120 nM,320 nM,–,–,COc1cccc(-c2cc(NCc3cccc(F)c3)nc(N)n2)c1,–
120 nM,20 nM,35 nM,30 nM,40 nM,–,–,COc1cccc(-c2cc(N(C)Cc3ccc4c(c3)OCO4)nc(N)n2)c1,–
450 nM,170 nM,420 nM,200 nM,150 nM,–,–,Cc1ccc(-c2cc(NCc3ccc4c(c3)OCO4)nc(N)n2)cc1,–
1250 nM,200 nM,820 nM,190 nM,120 nM,–,–,COc1ccc(-c2cc(NCc3ccc4c(c3)OCO4)nc(N)n2)cn1,–
> 2000 nM,> 2000 nM,> 2000 nM,> 2000 nM,> 2000 nM,–,–,Cn1cc2c(-c3cc(NCc4ccc5c(c4)OCO5)nc(N)n3)cccc2n1,–
640 nM,120 nM,300 nM,90 nM,20 nM,–,–,Nc1nc(NCc2ccc3c(c2)OCO3)cc(-c2ccc3c(c2)CCN3)n1,–
> 2000 nM,> 2000 nM,> 2000 nM,> 2000 nM,> 2000 nM,–,–,COc1cc(-c2cc(NCc3ccc4c(c3)OCO4)nc(N)n2)cc(OC)c1OC,–
> 2000 nM,> 2000 nM,> 2000 nM,> 2000 nM,> 2000 nM,–,–,Nc1nc(NCc2ccc3c(c2)OCO3)cc(-c2cccc(-c3ccccc3)c2)n1,–
40 nM,60 nM,30 nM,30 nM,70 nM,–,–,COc1cccc(-c2cc(NCc3ccc(OC)c(OC)c3)nc(N)n2)c1,–

IC50 (MCF7),IC50 (HeLa),IC50 (HCT-116),IC50 (MOLM-13),IC50 (K562),Activity (Tubulin (Homo sapiens) [1]),Activity (Tubulin (Homo sapiens) [2]),SMILES,IC50 (NCI/ADR-RES)
590 nM,430 nM,260 nM,280 nM,260 nM,–,–,COc1cccc(-c2cc(NCc3ccc(OC(F)(F)F)cc3)nc(N)n2)c1,–
> 2000 nM,> 2000 nM,> 2000 nM,> 2000 nM,> 2000 nM,–,–,CC(C)c1ccc(-c2cc(NCc3ccc4c(c3)OCO4)nc(N)n2)cc1,–
> 2000 nM,> 2000 nM,1670 nM,> 2000 nM,1820 nM,–,–,Nc1nc(NCc2ccc3c(c2)OCO3)cc(-c2ccc3ccccc3c2)n1,–
960 nM,500 nM,770 nM,220 nM,250 nM,–,–,Nc1nc(NCc2ccc3c(c2)OCO3)cc(-c2cccc3ccccc23)n1,–
350 nM,180 nM,330 nM,60 nM,60 nM,–,–,COc1cc(OC)cc(-c2cc(NCc3ccc4c(c3)OCO4)nc(N)n2)c1,–
26500 nM,48600 nM,37500 nM,20200 nM,19300 nM,inactive,inactive,COc1cccc(-c2cc(N)nc(NCc3ccc4c(c3)OCO4)c2)c1,–
1210 nM,180 nM,390 nM,110 nM,70 nM,–,–,Nc1nc(NCc2ccc3c(c2)OCO3)cc(-c2ccc3c(c2)OCO3)n1,–
620 nM,120 nM,520 nM,120 nM,130 nM,–,–,COc1ccc(CNc2cc(-c3cccc(OC)c3)nc(N)n2)cc1,–
60 nM,20 nM,60 nM,30 nM,40 nM,Dose-Dependent Effect,–,CCN(Cc1ccc2c(c1)OCO2)c1cc(-c2cccc(OC)c2)nc(N)n1,–
280 nM,330 nM,160 nM,110 nM,280 nM,–,–,COc1cccc(-c2cc(NCc3cc(OC)c(OC)c(OC)c3)nc(N)n2)c1,–
–,–,–,–,–,–,–,COc1cccc2c1C(=O)c1c(O)c3c(c(O)c1C2=O)C[C@@](O)(C(=O)CO)C[C@@H]3O[C@H]1C[C@H](N)[C@H](O)[C@H](C)O1 [DOXORUBICIN HYDROCHLORIDE],8630 nM
650 nM,520 nM,710 nM,240 nM,170 nM,–,–,Nc1nc(NCc2ccc3c(c2)OCO3)cc(-c2ccc3c(c2)OCCO3)n1,–
220 nM,230 nM,210 nM,170 nM,330 nM,–,–,COc1cccc(-c2cc(N3CCc4cc(OC)c(OC)cc4C3)nc(N)n2)c1,–
> 2000 nM,> 2000 nM,> 2000 nM,> 2000 nM,> 2000 nM,–,–,N#Cc1cccc(-c2cc(NCc3ccc4c(c3)OCO4)nc(N)n2)c1,–
> 2000 nM,> 2000 nM,> 2000 nM,> 2000 nM,> 2000 nM,–,–,CC(=O)Nc1cccc(-c2cc(NCc3ccc4c(c3)OCO4)nc(N)n2)c1,–
530 nM,280 nM,550 nM,360 nM,300 nM,–,–,CN(C)c1cccc(-c2cc(NCc3ccc4c(c3)OCO4)nc(N)n2)c1,–
60 nM,110 nM,97 nM,60 nM,60 nM,–,–,C=CCN(Cc1ccc2c(c1)OCO2)c1cc(-c2cccc(OC)c2)nc(N)n1,–
> 2000 nM,> 2000 nM,1050 nM,1010 nM,740 nM,–,–,Nc1nc(NCc2ccc3c(c2)OCO3)cc(-c2cccc(OCc3ccccc3)c2)n1,–
22800 nM,30800 nM,15800 nM,12500 nM,8630 nM,Dose-Dependent Effect,Active,COc1cccc(-c2cc(NCc3ccc4c(c3)OCO4)ncn2)c1,–
690 nM,90 nM,520 nM,190 nM,100 nM,–,–,COc1cccc(-c2cc(NCc3ccc4c(c3)OCO4)nc(N)n2)c1,–
> 2000 nM,910 nM,1010 nM,560 nM,280 nM,–,–,Nc1nc(NCc2ccc3c(c2)OCO3)cc(-c2ccoc2)n1,–
1910 nM,460 nM,910 nM,250 nM,140 nM,Dose-Dependent Effect,–,Nc1nc(NCc2ccc3c(c2)OCO3)cc(-c2ccccc2)n1,–
110 nM,80 nM,110 nM,80 nM,80 nM,–,–,CCCN(Cc1ccc2c(c1)OCO2)c1cc(-c2cccc(OC)c2)nc(N)n1,–
